Earlier results in patent US8747385B2, “Methods and compositions to treat myocardial conditions” (Abbott Cardiovascular Systems Inc., priority 2003, dated 2014).

| Structure (SMILES) | O2 solubility at 37° C. |
| --- | --- |
| FC(F)(F)C(F)(F)C(F)(F)C(F)(F)CCC(F)(F)C(F)(F)C(F)(F)C(F)(F)F [F-44E, 1,2-bis(perfluorobutyl)ethane] | 50 V % |
| FC1(F)C(F)(F)C(F)(F)C2(F)C(F)(F)C(F)(F)C(F)(F)C(F)(F)C2(F)C1(F)F (centres unmarked) [FDC, Perfluorodecalin] | 45 V % |
